In a melting point compilation (Tetko et al.; mined from patent text by program, amines drawn as free bases though some values may be those of a salt) one finds melting point data, which are given here for 89 molecules.

By melting point is commonly meant the temperature of the solid-liquid transition. On to `CN(CCO)Cc1cc(C(=O)c2ccc(Cl)cc2)cc(C(C)(C)C)c1O`, for which the melting point fell in the range of 126 to 127 °C.

Regarding `CC(=O)Oc1c(C=C(C#N)C#N)[nH]c2ccccc12`, the melting point lay within 210 to 212 °C. As for `CC(=O)Oc1ccccc1C(=O)Oc1nc[nH]c1C(N)=O`, the melting point lay within 143 to 145 °C.

With `CN(C)CCN1C(=O)C(C)(C)SC1c1cccnc1` (centres undefined), the melting point was 67 to 70 °C. Take `N=C(NO)c1cccc(-c2ccc(O)c(-c3nc4cc(C(=N)NO)ccc4[nH]3)c2)c1`: the melting point lay within 352 to 355 °C. Consider `Cn1c(OCC(F)(F)F)nn(C(=O)Oc2ccccc2)c1=O`, for which the melting point stood at 105 °C.

In the case of `O=C1C2CC3=C(CN2C(=O)N1c1ccccc1)N(Cc1ccccc1)CN3` (centres undefined), the melting point is 227 to 229 °C. Consider `CCc1nc2c(N)nc3ccc(-c4ccccc4)cc3c2n1CC(C)C`, for which the melting point lay in the range of 233 to 235 °C. The result for `Cc1cc(C(O)(C(F)(F)F)C(F)(F)F)cc(C)c1OCCN` reads 167 to 169 °C.

Turning to `CC(C)(C)C(=O)OCCc1c(-c2ccccc2)nc(N)n2ncnc12`, the melting point is 160 °C. The figure for `CC(=O)OCc1cc2ccccc2[nH]1` is 112 °C; for `O=C(N=P(c1ccccc1)(c1ccccc1)c1ccccc1)OCC1CC1` it is 107 to 113 °C. The figure for `CCCCCCCCSc1cc(SCCCCCCCC)c2ccc3c(SCCCCCCCC)cc(SCCCCCCCC)c4ccc1c2c43` is 110 °C; for `COc1ccc(C2C(C(=O)c3ccc(OC(F)(F)F)cc3)=C(O)C(=O)N2c2ccc(C)nn2)cc1` (centres undefined) it is 279 °C; for `COc1cc(OCc2ccccn2)ccc1/C=C/C(=O)CC(=O)/C=C/c1cc2ccccc2o1` it is 126 to 128 °C. The result for `OCCCc1ccc(O)cc1` reads 52 to 54 °C; that for `CN(C)CC1CCc2[nH]c3c(c2C1=O)CCC3` (centres undefined), 164 to 165 °C. Turning to `Cn1nc(-c2cnc3[nH]cc(C(=O)NC4CCCCC4)c3n2)c2ccc(Cl)cc21`, the melting point is 321 to 323 °C. The figure for `CC(C)(C)n1nnc(Cc2ccc(C(=O)O)cc2)n1` is 139 to 140 °C; for `CCOCCn1c(N2CCN(CC)CC2)nc2ccccc21` it is 134 to 136 °C.

Take `C=C1C(O)C(COC(=O)CCCCCCCCCCCCCCCCC)OC1n1ccc(NC(=O)CCCCCCCCCCCCCCCCC)nc1=O` (centres undefined): the melting point lay in the range of 135 to 139 °C. Molecule `COc1nc(C)c(Nc2nc(Cl)cn([C@H](COC(=O)Nc3cccc(C#N)c3)C3CC3)c2=O)cc1C` had a melting point of 206 to 207 °C.

With `CC12C=CC(=O)C=C1C(SC#N)C(O)C1C2CCC2(C)C(=O)CCC12` (centres undefined), the melting point is 206 to 208 °C. The figure for `Cc1c(-c2ccccc2)oc(=O)c(Sc2ccccc2)c1O` is 166 to 167 °C; for `COc1cn(-c2cc(-n3cccn3)ccc2F)nc(-c2ccnn2-c2ccccc2)c1=O` it is 186 to 187 °C. The figure for `Cc1cc(-c2cnn3c(C(F)(F)F)cc(-c4ccc(Br)cc4)nc23)ccn1` is 226 °C; for `COC(=O)c1ccc2cc(NC(=O)OC(C)(C)C)ccc2c1` it is 178 to 180 °C; for `CCCNC(C)=NC(=Nc1ccccc1)N1CCOCC1` it is 101 to 103 °C. The figure for `CCCc1nc2c(N)nc3cc(-c4cncc(CO)c4)ccc3c2n1CC(C)(C)O` is 225 to 226 °C; for `CCOC(=O)Cc1ccc(-c2nc(COc3ccc(COc4nn(-c5ccccc5)cc4/C=C\c4csc(CC)n4)cc3OC)c(C)o2)cc1` it is 136 to 137 °C. For the molecule `O=[N+]([O-])c1ccnc(Nc2nccs2)c1`, the melting point lay within 230 to 233 °C.

`Cc1nc(-c2cc(C(=O)O)c(=O)[nH]c2C)cs1` returned a melting point of 297 to 299 °C. The result for `COc1ccc(N2CCN(c3c(C)c(C)c4c(c3C)C(c3ccc5ccccc5c3)C(C)(C)O4)CC2)cc1` (centres undefined) reads 170 to 171 °C; that for `Fc1ccc(C2=CCC(N3CCN(Cc4ccc5ccccc5n4)CC3)CC2)cc1` (centres undefined), 111 to 114 °C. The figure for `COc1ccnc(Cc2cnc(NCCSCc3nc[nH]c3C)[nH]c2=O)c1` is 128 to 130 °C. The figure for `CSC(=C[N+](=O)[O-])NC(C)C(C)(C)C` (centres undefined) is 69 °C. Molecule `COc1ccc2nc(NC(=O)c3nnn(Cc4ccc(Cl)c(Cl)c4)c3C)sc2c1` came in with a melting point of 225 °C. The result for `c1ccc(Nc2nc[nH]c3ncc(-c4ccccc4)c2-3)cc1` reads 208 to 209 °C; that for `N#Cc1cc(Cl)c(NC(=O)NC(=O)c2c(F)cccc2F)cc1Cl`, 238 to 240 °C; that for `COC(=O)CCc1sc(N)nc1-c1ccccc1`, 130 to 131 °C. `CC1=CC(=O)CC(C)(C)C1(O)C/C=C(C)/C=C\O` (centres undefined) showed a melting point of 127 to 129 °C. The result for `FC(F)c1cc(-c2ccc(C(F)(F)F)cc2)nc2c(I)ncn12` reads 159 °C.

In the case of `CCCCNC(=O)Nc1ccc(NC)cc1C(=O)NCC1CCN(C(c2ccccc2)c2ccccc2)CC1`, the melting point lay in the range of 203 to 204 °C.

In turn, `COc1cc(-n2nc(C)[nH]c2=O)ccc1C` yielded a melting point of 164 to 168 °C. The result for `CCOc1ccc2c(c1)C(C)=CC(C)(C)N2C1O[C@H](COC(C)=O)[C@@H](OC(C)=O)[C@H](OC(C)=O)[C@H]1OC(C)=O` (some centres undefined) reads 180 to 181 °C. The result for `COc1cc(C)c(C(=O)c2c(C)c(C)cc(C)c2C)c(OC)c1OC` reads 143 °C; that for `C=CCOc1nccnc1Cl`, 149 to 150 °C; that for `COc1ccc(S(=O)(=O)c2ccc(C)nc2Nc2c(C)cc(C)cc2C)cc1`, 165 to 167 °C.

On to `Cc1ccc2c(c1)N(CC(=O)c1ccccc1C)C(=O)C(NC(=O)Nc1cccc(C(=O)O)c1)CN2C(=O)c1cccs1` (centres undefined), for which the melting point lay in the range of 219 to 222 °C. For the molecule `N#Cc1cnc2cnc(F)cc2c1Nc1ccc(Cl)cc1Cl`, the melting point fell in the range of 206 to 208 °C. The figure for `CCCCc1nc(CCc2ccccc2)nn1Cc1ccc(-c2ccccc2-n2cnnn2)cc1` is 156 to 157 °C; for `COc1cc(C(=O)NS(=O)(=O)c2ccccc2)ccc1Cn1ccc2ccc(N)cc21` it is 151 to 155 °C.

In turn, `Cc1cc2cc(C#N)c(=O)[nH]c2cc1C` displayed a melting point of 300 °C. The molecule `COC(=O)c1ccc2c(c1)C(SCCO)c1ccccc1CO2` (centres undefined) registered a melting point of 128 to 130 °C. As to `O=C1CCC(N2Cc3c(O)cccc3C2=O)C(=O)N1` (centres undefined), the melting point was determined as 296 °C. `CCCc1nc(N)nc(N2CCOCC2)n1`: the melting point was in the range of 127 to 128 °C. The result for `Cc1cc(Sc2cc(C)c(O)c(C)c2)cc(C)c1O` reads 142 °C; that for `C=CCON=C(C(=O)OCC)c1csc(N)n1`, 102 to 104 °C. In the case of `COc1cc2c(cc1OC)CC(=O)N(CCC=O)C=C2`, the melting point fell in the range of 95 to 96 °C. The result for `[N-]=[N+]=NCCCn1ccc(-c2ccc(F)cc2)c1-c1ccncc1` reads 219 to 222 °C; that for `O=C1N=C(N2CCOCC2)SC1=Cc1ccccc1-c1ccc(O)c(C23CC4CC(CC(C4)C2)C3)c1`, 321 to 324 °C; that for `Cc1cccc2c(N3CCSCC3)nc(Cl)cc12`, 134 to 136 °C. The figure for `O=[N+]([O-])c1cn2c(n1)OC[C@@H](OCc1csc(-c3ccc(OC(F)(F)F)cc3)n1)C2` is 140 to 141 °C.

`COC(=O)C1CC(=O)C(CC(=O)O)C1C[N+](=O)[O-]` (single isomer, unassigned; (-)) showed a melting point of 111 to 112 °C. `COc1cc2c(cc1OCc1ccccc1)CCN(C(=O)c1cccc(C#N)c1)C2=O`: the melting point was in the range of 195 to 196 °C.

Molecule `Cc1cc(=O)c(C(=O)O)c(C)o1` displayed a melting point of 98 °C. Consider `Nc1cc(Cl)ccc1-c1noc(=O)[nH]1`, for which the melting point lay within 159 to 161 °C. The result for `CC(=O)NCCC1CCc2ccc(O)cc21` (centres undefined) reads 107 to 108 °C. The figure for `CCCCC(=O)N(Cc1ccc(OC(F)(F)F)c(Cl)c1)c1cc(F)cc(-c2nnn[nH]2)c1` is 137 °C. The molecule `CC(C(N)=O)N1CCN(c2ccccn2)CC1` (centres undefined) showed a melting point of 130 to 132 °C. The figure for `CNC(=O)Oc1cc(C)c(NS(C)(=O)=O)c(C)c1` is 178 to 185 °C. The result for `COC(=O)c1cc(-c2nc(COc3ccc(COc4nn(-c5ccccc5)cc4C=O)cc3OC)c(C)o2)ccc1C` reads 195 to 196 °C; that for `COc1ccc(Cl)cc1C(=O)NCCc1ccc(CCC(=O)O)cc1`, 118 to 120 °C; that for `CC(=O)c1ccc(CC(C)C)c(C#N)c1`, 71 to 72 °C. The figure for `COc1ccc(NC(=O)C23CC4CC(CC(C4)C2)C3)cc1` is 181 to 184 °C. On to `N#Cc1ccc(Nn2cnnc2)cc1-c1ccc(F)cc1`, for which the melting point lay within 231 to 234 °C. With `Cc1cc(CCc2c(Br)c(C)c(O)c(C)c2Br)c(Br)c(C)c1O`, the melting point fell in the range of 249 to 255 °C. Regarding `COc1ccc(C(=O)Cc2c(Cl)cncc2Cl)cc1OC1CCCC1`, the melting point lay within 119 to 120 °C.

In the case of `C#CCC1(c2ccc(Cl)cc2)Cc2cc(OCC(=O)O)c(Cl)c(Cl)c2C1=O` (centres undefined), the melting point fell in the range of 200 to 201 °C. The result for `O=C(Nc1ccc(-n2nc(C(F)(F)F)cc2C(F)(F)F)cc1)C1=CCCCC1` reads 146 to 148 °C; that for `COc1cc(-c2csc(C3CC3)n2)cc2oc(=O)c(C)c(C)c12`, 151 °C; that for `Cn1ncc(C(=O)N2CC3(COC3)C2)c1C(=O)Nc1ccn2nc(N3CCOCC3)nc2c1`, over 300 °C.

With `COC(=O)C=CC(=O)c1cc(F)ccc1N`, the melting point was in the range of 80 to 84 °C. The figure for `CC(C(=O)Nc1ccc(Cl)cc1Cl)N1C(=O)C=CC1=O` (centres undefined) is 131 °C; for `CNC(=O)c1ccc(CN2CCN(c3nc(C)c(C(C)=O)s3)C2=O)cc1` it is 173 to 175 °C; for `O=C(O)CN1C(=O)C(=Cc2ccc(C(=O)O)cc2)SC1=S` it is over 300 °C. `Cc1c(-c2ccc(NC(=O)OC(C)(C)C)cc2)nc2n1CCc1ccccc1C2OC1CCN(C)CC1` (centres undefined) yielded a melting point of 194 °C. The figure for `N=C1SCCN1c1ccc([N+](=O)[O-])cc1` is 166 °C; for `CCCCC(=O)OCC(=O)C1C(C)CC2C3CC(Cl)C4=CC(=O)C=CC4(C)C3(Cl)C(O)CC21C` (centres undefined) it is 218 °C.
